Calls of active or inactive are those of the source.
Legend:
[1] = target: T1, Heat shock factor protein 1 (Mus musculus, UniProt P38532); assay: inhibition of MG132-induced HSE-luciferase signal, confirmation, cell-based, NIH3T3, luminescence, dose retest (AID 2382); assay type: functional;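 also: NIH3T3 fibroblasts with HSF1-driven luciferase reporter stressed by proteasome inhibitor MG132; luminescence from HSF1-driven luciferase expression after 8 hours of MG132 stress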
T1 sequence (P38532 whole entry): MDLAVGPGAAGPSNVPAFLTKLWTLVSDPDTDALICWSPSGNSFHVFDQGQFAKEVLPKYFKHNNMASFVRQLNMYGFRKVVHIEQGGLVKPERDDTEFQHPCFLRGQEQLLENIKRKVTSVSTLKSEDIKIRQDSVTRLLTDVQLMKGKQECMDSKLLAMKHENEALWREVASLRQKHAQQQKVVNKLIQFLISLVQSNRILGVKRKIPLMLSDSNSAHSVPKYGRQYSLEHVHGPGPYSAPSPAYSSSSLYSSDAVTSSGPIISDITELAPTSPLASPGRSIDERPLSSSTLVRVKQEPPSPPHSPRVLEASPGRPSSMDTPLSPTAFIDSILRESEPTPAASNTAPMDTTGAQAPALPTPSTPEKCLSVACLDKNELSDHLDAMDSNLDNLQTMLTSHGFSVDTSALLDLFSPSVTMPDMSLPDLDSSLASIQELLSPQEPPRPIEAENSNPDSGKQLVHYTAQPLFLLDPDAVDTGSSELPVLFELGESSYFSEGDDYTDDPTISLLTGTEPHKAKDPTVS

[2] = HEp-2 cell cytotoxicity, dose response, cytotoxicity control for RSV inhibitor project, HTS (AID 2410); assay type: functional; settings: human respiratory syncytial virus
[3] = target: Cytochrome P450 2C19 (Homo sapiens, UniProt P33261); assay: Cytochrome panel assay with activity outcomes. Panel member name: p450-cyp2c19 Compounds with AC50 equal or less than 10 uM are considered active; assay type: functional
[4] = target: Cytochrome P450 2C9 (Homo sapiens, UniProt P11712)
[5] = inhibitors of intracellular T. cruzi replication, confirmation, NIH3T3 host cells, beta-gal luminescence (AID 2044); assay type: functional, cell-based;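 also: intracellular parasites grown in NIH/3T3 mouse fibroblasts as host cells; luminescent beta-galactosidase reporter signal from transgenic T. cruzi replicating inside host cells; inhibitors lower the luminescence signal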
[6] = cytotoxicity toward NIH3T3 fibroblasts, dose response, counter-screen, cell-based, ATP luminescence, mouse fibroblasts (AID 2010); assay type: functional;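 also: cells exposed to compound for about 90 hours before reading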
[7] = NIH-3T3 fibroblast cytotoxicity, dose response, cytotoxicity control, cell-based, fluorescence, Alamar Blue, secondary assay (AID 2327); assay type: functional;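 also: NIH-3T3 mouse fibroblasts cultured with fluconazole at 8 µg/mL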
[8] = C. albicans growth with fluconazole, confirmation, fluorescence, retest (AID 2467); assay type: functional, cell-based
[9] = system: Streptococcus sp. 'group A'; assay: growth inhibition of control SK(-) GAS strain, dose response, counter-screen for streptokinase expression inhibitor project, luminescence, kanamycin, BacTiterGlo, confirmation (AID 1900); assay type: functional, organism-based
[10] = system: Streptococcus; assay: Group A Streptococcus viability loss, dose response, counter-screen for streptokinase expression inhibitor project, luminescence, BacTiterGlo (AID 1915); assay type: functional, organism-based;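 also: potency for reduction of bacterial viability or growth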

Chain of Cytochrome P450 2C19 (P33261 whole entry): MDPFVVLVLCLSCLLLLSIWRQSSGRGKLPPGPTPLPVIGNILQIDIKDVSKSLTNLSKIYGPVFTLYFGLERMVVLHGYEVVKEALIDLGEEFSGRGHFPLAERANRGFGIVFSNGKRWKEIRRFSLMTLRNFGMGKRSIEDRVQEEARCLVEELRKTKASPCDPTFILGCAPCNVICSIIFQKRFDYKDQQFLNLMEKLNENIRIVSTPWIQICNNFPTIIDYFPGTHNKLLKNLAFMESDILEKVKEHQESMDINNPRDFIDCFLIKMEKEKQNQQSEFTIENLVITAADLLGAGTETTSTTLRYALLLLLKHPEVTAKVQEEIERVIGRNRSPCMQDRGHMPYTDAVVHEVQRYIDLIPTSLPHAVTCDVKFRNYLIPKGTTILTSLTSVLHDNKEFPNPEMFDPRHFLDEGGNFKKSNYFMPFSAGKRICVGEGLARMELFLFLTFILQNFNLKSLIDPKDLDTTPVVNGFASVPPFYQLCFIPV
Chain of Cytochrome P450 2C9 (P11712 whole entry): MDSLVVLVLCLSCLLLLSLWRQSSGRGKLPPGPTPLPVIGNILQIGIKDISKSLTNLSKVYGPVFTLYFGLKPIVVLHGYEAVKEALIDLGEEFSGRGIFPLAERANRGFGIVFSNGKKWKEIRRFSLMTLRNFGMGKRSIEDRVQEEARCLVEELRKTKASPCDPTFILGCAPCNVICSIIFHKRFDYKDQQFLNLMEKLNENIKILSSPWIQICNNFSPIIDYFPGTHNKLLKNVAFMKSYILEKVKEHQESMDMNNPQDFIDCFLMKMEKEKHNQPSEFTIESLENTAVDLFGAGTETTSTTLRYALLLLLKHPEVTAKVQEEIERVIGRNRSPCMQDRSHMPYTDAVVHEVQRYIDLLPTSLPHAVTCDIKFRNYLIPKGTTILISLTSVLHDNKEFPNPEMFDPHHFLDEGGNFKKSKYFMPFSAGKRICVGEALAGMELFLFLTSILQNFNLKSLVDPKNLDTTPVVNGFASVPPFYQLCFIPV

Cc1cc(C)n(C(=O)c2ccncc2)n1
EC50 [1]: > 195 µM (not active)

Cc1ccc(NC(=O)CC2SC(N/N=C3\CCCc4ccccc43)=NC2=O)cc1 (stereo unspecified)
CC50 [2]: 15.5 µM (active)

Nc1ccn([C@H]2O[C@@H](COP(=O)(O)O)[C@@H](O)[C@H]2O)c(=O)n1
AC50 [3]: inconclusive

Cc1ccc2cc(CCNC(=O)c3ccc(Br)o3)c(O)nc2c1
AC50 [4]: 10 µM (inconclusive)

CC(=O)COc1ccc2c3c(c(=O)oc2c1)CCCC3
CC50 [2]: > 50 µM (active)

COC(=O)/C(=N/Nc1ccc(C)cc1)N1CCCc2ccccc21
CC50 [2]: 22.3 µM (active)

O=C(N/N=C/c1cccc(Oc2ccccc2)c1)c1cccc(Br)c1
CC50 [2]: 17 µM (active)

O=C(Oc1ccc2ccc(=O)oc2c1)c1ccco1
EC50 [5]: > 60 µM (not active) | EC50 [6]: > 60 µM (not active)

Cn1c(=O)c2cn(-c3ccc4c(c3)OCCO4)cc2n(C)c1=O
EC50 [1]: > 195 µM (not active)

Cc1ccccc1N1CCN(CCN2C(=O)CC(=C3c4ccccc4-c4ccccc43)C2=O)CC1
EC50 [7]: > 160 µM (inactive) | EC50 [8]: 3.89 µM (active)

CCOc1ccc(NCC(=O)c2ccc(C)cc2)cc1
EC50 [5]: 1.38 µM (active) | EC50 [6]: > 30 µM (not active) | EC50 [1]: > 195 µM (not active)

CC(C)C[C@H](NC(=O)c1[nH]cnc1C(=O)N[C@@H](Cc1ccccc1)C(=O)OC(C)(C)C)C(=O)OC(C)(C)C
EC50 [9]: 2.33 µM (active) | EC50 [10]: 5.07 µM (active)

COc1ccc(CCn2c(C)cc3c(c2=O)C(c2ccc4c(c2)OCO4)C(C#N)=C(N)O3)cc1OC (stereo unspecified)
EC50 [7]: > 160 µM (inactive) | EC50 [8]: > 38 µM (not active)

Cc1ccccc1-c1nc2sc3c(c2c(=O)n1N)CCCC3
EC50 [1]: > 195 µM (not active)

CCCCCCCCn1c(N2CCN(c3cccc(Cl)c3)CC2)nc2c1c(=O)[nH]c(=O)n2C
EC50 [5]: 2.22 µM (active) | EC50 [6]: > 60 µM (not active)

CCNc1nc(NC(C)C)nc(N2CC(=O)N(CC(=O)OCC)C2=N)n1
CC50 [2]: 25.2 µM (active)

COc1ccc(CCNC(=O)[C@H](C)N2C(=O)N3CCc4c([nH]c5ccccc45)[C@@]3(C)C2=O)cc1
EC50 [5]: 1.97 µM (active) | EC50 [6]: > 60 µM (not active)

COC(=O)c1cccc(NC(=O)CN2CCN(Cc3ccccc3)CC2)c1
EC50 [1]: > 195 µM (not active)

O=C(Cc1cccs1)Nc1cccc(-c2nc3ccccc3[nH]2)c1
EC50 [7]: > 150 µM (inconclusive) | EC50 [8]: 3.52 µM (active)

CCc1c(C)sc(NC(=O)CN2CCN(C(=O)c3ccco3)CC2)c1C(=O)OC
CC50 [2]: 12.7 µM (active)

CSc1cc(-c2ccccc2)n(C)c(=O)c1C#N
EC50 [7]: 117 µM (active) | EC50 [8]: > 38 µM (not active)

O=[N+]([O-])c1ccc(C2CCCC/C2=N/OCc2ccc(F)cc2)c([N+](=O)[O-])c1 (stereo unspecified)
EC50 [5]: 0.492 µM (active) | EC50 [6]: > 60 µM (not active) | EC50 [7]: > 160 µM (inactive) | EC50 [8]: 21.6 µM (active)

O=C(COC(=O)c1cc(Cl)ccc1O)NNC(=O)c1ccc([N+](=O)[O-])cc1
EC50 [1]: > 195 µM (not active)

CCCCn1c(-c2ccco2)nc2oc3ccccc3c(=O)c2c1=O
EC50 [9]: 64 µM (active) | EC50 [10]: 46.1 µM (active)

Cn1c(=S)c2nc(SCCN3CCCC3)[nH]c2n(C)c1=O
AC50 [4]: 3.16 µM (inconclusive)

Nc1cccc(/C=C/C(=O)O)c1
EC50 [1]: > 195 µM (not active)

O=c1[nH]c(NCCO)nc2c1C1(CCCCC1)Cc1ccccc1-2
CC50 [2]: > 50 µM (active)

Cc1nc(S(=O)(=O)NC2CCCCC2)c(C#N)c(C)c1Cl
AC50 [4]: 28.2 µM (inconclusive)

COc1ccccc1Cn1c(=O)c2ccccc2n2c(Sc3ncnc4sccc34)nnc12
CC50 [2]: 19.6 µM (active)

c1ccc(CSc2nnc(-c3sccc3-n3cccc3)o2)cc1
AC50 [4]: 39.8 µM (inconclusive)

CCOc1ccc(CN2CCC(C(=O)N3CCN(c4ccccc4F)CC3)CC2)cc1OC
EC50 [5]: 0.182 µM (active) | EC50 [6]: > 30 µM (not active)

Cc1ccc(-c2csc(NC(=O)c3ccc(S(=O)(=O)N4CCc5ccccc54)cc3)n2)cc1
EC50 [1]: > 195 µM (not active)

CCNc1nc(NCC)nc(ON=C(C)C)n1
AC50 ([3]; read-out: AC50): 17.8 µM (inconclusive)

Cc1cccc(OCC(=O)OC2CCN(C)CC2)c1
EC50 [1]: > 195 µM (not active)

CN1CCN(Cc2ccc(Sc3ccc(Cl)cc3)c([N+](=O)[O-])c2)CC1
EC50 [5]: 1.13 µM (active) | EC50 [6]: > 60 µM (not active)

CC(=O)NC12CC3CC(C1)CC(C(=O)Oc1ccc(N(C)S(=O)(=O)c4cc(C)ccc4C)cc1)(C3)C2
CC50 [2]: 34.2 µM (active)

O=C(NNC(=O)c1ccccc1O)c1ccc(Cl)cc1
AC50 [4]: 20 µM (inconclusive)

Cn1c(=O)c(=O)n(C)c2cc(S(=O)(=O)NCCN3CCN(c4ccccc4F)CC3)ccc21
EC50 [5]: 0.496 µM (active) | EC50 [6]: > 60 µM (not active)

c1ccc(-c2nn[nH]n2)nc1
EC50 [1]: > 195 µM (not active)

CN1CCN(Cc2cccc(Oc3ccc(Cl)cc3)c2)CC1
EC50 [5]: 0.267 µM (active) | EC50 [6]: > 60 µM (inconclusive)

CCn1c2ccc(F)cc2c2nnc(SCCN3CCCCC3)nc21
EC50 [5]: 0.777 µM (active) | EC50 [6]: > 60 µM (not active)

CC(C)c1nnc(-c2ccc(Cl)cc2)c(N(C)C)n1
AC50 [4]: 10 µM (inconclusive)

O=[N+]([O-])c1ccc(CSCc2ccc(Cl)cc2)cc1
AC50 [4]: 7.94 µM (inconclusive)

CCCCNC(=O)NS(=O)(=O)c1cnccc1Sc1ccc(Cl)cc1
AC50 ([3]; read-out: AC50): 22.4 µM (inconclusive)

C=CCN(C(=O)CSC1=NC(=O)CN1C(C)=O)c1nc(C)c(-c2ccccc2)s1
EC50 [5]: 1.58 µM (active) | EC50 [6]: > 30 µM (not active)

CCOc1ccc(CN(C)CC(=O)Nc2cccc(S(=O)(=O)N(C)c3ccccc3)c2)cc1
EC50 [5]: 0.181 µM (active) | EC50 [6]: > 60 µM (not active)

CC1(C)Cc2c(C#N)c(SCCOc3ccccc3)nc(N3CCOCC3)c2CO1
EC50 [5]: 1.49 µM (active) | EC50 [6]: > 60 µM (not active)

COc1ccc(C(=O)C2CCCN(S(=O)(=O)c3ccccc3F)C2)c(C)c1 (stereo unspecified)
EC50 [1]: > 195 µM (not active)

Nc1cc2c(nc3c4ccccc4c(N)cc3[n+]2-c2cccc3ccccc23)c2ccccc12.Nc1cc2c(nc3c4ccccc4ccc3[n+]2-c2cccc3ccccc23)c2ccccc12
AC50 [4]: 2.51 µM (inconclusive)

O=C(COC(=O)c1cc[n+]([O-])cc1)Nc1cccc(Cl)c1Cl
EC50 [1]: 23 µM (active)

Cc1ccc(S(=O)(=O)N(C)c2c(C)ccc(S(=O)(=O)N3CCN(C)CC3)c2C)cc1
EC50 [1]: > 195 µM (not active)

N#Cc1ccc(OCCOCCNC2CCCC2)cc1
EC50 [5]: 0.2 µM (active) | EC50 [6]: > 60 µM (not active)

Fc1cccc(Cl)c1Cn1nnc(-c2ccc3c(c2)OCO3)n1
CC50 [2]: 26.2 µM (active)

CCN1C(=O)/C(=C2/C(=O)Nc3ccccc32)c2cc(Br)ccc21
EC50 [5]: 1.3 µM (active) | EC50 [6]: > 60 µM (inconclusive)

CCC(=O)Nc1ccccc1C(=O)OCC(=O)c1ccc2ccccc2c1
CC50 [2]: 25 µM (active)

C=CCNC(=S)N/N=C/c1ccc(-c2ccc(OC)cc2)o1
EC50 [5]: 1.76 µM (active) | EC50 [6]: > 60 µM (not active) | EC50 [7]: > 150 µM (inactive) | EC50 [8]: > 38 µM (not active)

CC(C)(C)NS(=O)(=O)c1cc2c3c(c1)CCN3C(=O)CC2
EC50 [1]: > 195 µM (not active)

O=C(NCC1CCCO1)c1cc2c3ccccc3nc-2c(-c2cccc(Br)c2)[nH]1 (stereo unspecified)
EC50 [5]: 0.882 µM (active) | EC50 [6]: > 60 µM (not active)

O=C(CSCc1ccc(Cl)cc1)Nc1cc([N+](=O)[O-])ccc1O
EC50 [7]: > 150 µM (inactive) | EC50 [8]: 0.491 µM (active)

Cc1nc2c(=O)oc3ccccc3c2n1-c1ccccc1
EC50 [7]: > 150 µM (inactive) | EC50 [8]: 2.15 µM (active)

O=C(CCc1ccc(Oc2cc([N+](=O)[O-])cc([N+](=O)[O-])c2)cc1)NC1CCCC1
EC50 [5]: 0.106 µM (active) | EC50 [6]: > 30 µM (not active)

CNC(S)=Nc1sc2c(c1C(=O)OC)CCC2
CC50 [2]: 36.2 µM (active)

CC(C)(C)c1csc(NC(=O)Cn2cnc3ccccc3c2=O)n1
EC50 [7]: > 150 µM (inconclusive) | EC50 [8]: > 38 µM (not active)

COC(=O)C1=C(C)N(c2ccc(Cl)cc2)/C(=C/c2ccc(O)cc2)C1=O
CC50 [2]: 36.3 µM (active)

CCc1nnc(NC(=O)CSc2nnc(CNc3cccc(C)c3)n2-c2ccccc2)s1
EC50 [7]: > 150 µM (inactive) | EC50 [8]: > 38 µM (not active)

N#Cc1cc2c(nc1SCC(=O)N1CCOCC1)CCCCC2
EC50 [1]: 2.01 µM (active)

Cc1c(O)cccc1C(=O)N[C@@H](CSc1ccccc1)[C@H](O)CN1C[C@H]2CCCC[C@H]2C[C@H]1C(=O)NC(C)(C)C
EC50 [5]: 3.42 µM (active) | EC50 [6]: > 60 µM (not active)

— ChEMBL document CHEMBL1201862, “PubChem BioAssay data set” (2004)
